Measurements published in PMC8640510 (Cell Death and Differentiation, 2021).

How the values were obtained:
HCoV-OC43 = HCoV-OC43 viral infectivity assay; assay type: cell-based; conditions: HCoV-OC43, HMC3 cells; combination with remdesivir; #79: 60 μM, #96: […] μM, #102: 25 μM
Description: HMC3 cells were seeded into black 96-well plates at 90% confluency. The next day, media was removed and replaced with complete media containing compounds/carrier 2 h prior to infection. After that, 5 μl of HCoV-OC43 virus was added to each well at an MOI of 0.005 for a final total volume of 100 μl/well. The plates were incubated at 33 °C. The viral suspension was removed after 12 h and drugs were added back to the cells to further incubate at 33 °C for 36 h. At 48 h post infection, cells were fixed with 4 % PFA in the media for 15 min. Residual PFA was quenched with a 50 mM NH4Cl and 100 mM NaCl solution. Cells were permeabilized and blocked in 5% FBS, 3% BSA, 0.05% Triton X-100 and 0.005% NaN3 in PBS for an hour. Anti-N antibody (Sigma 542-7D) was diluted in 4% FBS in PBS at 1:1000 dilution and was applied at 4 °C for 16 h. After several washing steps, cells were stained with AlexaFluor 594 and DAPI. For determination of cytotoxicity, HMC3 cells were seeded into opaque white wall 96-well plates. The following day, media was removed, replaced with media containing compounds/carrier and incubated for 48 h. After 48 h, cell viability was determined using alamarBlue™ Cell Viability Reagent using an Infinite 200 PRO microplate reader (Tecan).
Plates were scanned on a Citation 5 Imaging Multi-Mode Reader (BioTek). Gen5 software (version 3.10) was used for both image acquisition and analysis. A total number of 16 images/well were collected at 4x magnification to span the entire well. DAPI channel was used to build primary masks for the nucleus. Secondary masks were built within a 15 μm ring around the primary nuclear mask. Infection efficiencies were calculated from the ratio of the total fluorescence intensity within the secondary mask and the total area of the secondary mask for each well. Microscope images were prepared for publication using ImageJ (version 1.53i).

SARS-CoV-2 = SARS-CoV-2 viral infectivity assay; assay type: cell-based; conditions: A549+ACE2 cells; for direct antiviral effect on SARS-CoV-2 on their own: 72 h post infection, compound alone; for synergy with remdesivir, SARS-CoV-2: combination with remdesivir, #79: 60 μM, #96: […] μM, #102: 25 μM
[1] = clinical studies in Japan, gastric diseases; cited from earlier work

| SMILES | lowering of the EC50 of remdesivir (HCoV-OC43) | direct antiviral effect on SARS-CoV-2 on their own (SARS-CoV-2) | synergy with remdesivir, SARS-CoV-2 (SARS-CoV-2) | tolerability in humans [1] |
| --- | --- | --- | --- | --- |
| O=C(NCc1ccc(F)cc1)C1C(=O)N(O)C(=O)c2cc(C(F)(F)F)ccc21 (stereo not shown) [#79, 7-trifluoromethyl-N-(4-fluorobenzyl)−2-hydroxy-1,3-dioxo-4H-isoquinoline-4-carboxamide] | ~ 5 fold | no direct antiviral effect was detected | synergized with remdesivir | – |
| CC(C)=CCc1c(O)ccc(C(=O)/C=C/c2ccc(O)cc2)c1O [#96, Isobavachalcone] | ~ 5 fold | no direct antiviral effect was detected | synergized with remdesivir | – |
| CC(C)=CCOc1ccc(/C=C/C(=O)c2ccc(OCC=C(C)C)cc2OCC(=O)O)cc1 [#102, Sofalcone, reference compound] | ~ 5 fold | no direct antiviral effect was detected | synergized with remdesivir | well tolerated by humans |
